{"source": "paper PMC9653409", "about": "“Generative deep learning enables the discovery of a potent and selective RIPK1 inhibitor” (Nature Communications, 2022)", "experiment_in_all_cases": "Kinase inhibitory activity profiling of RI-962@10 µM (406 kinases, Eurofins)", "format_in_all_cases": "biochemical", "key": {"[1]": {"molecular_target": "panel of human kinases (kinase named in endpoint) (Homo sapiens, UniProt Q6SA08)", "conditions": "10 µM; read-out: Activity (%), TSSK4(h)", "outline": "(§1)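 Radiometric filter-binding kinase assays: enzyme preincubated 15 min with compound in 8 mM MOPS pH 7.0, 0.2 mM EDTA, 250 μM peptide substrate, 10 mM magnesium acetate, 10 μM [γ-33P]-ATP. Reaction started with Mg/ATP, run 40 min at room temperature, stopped with phosphoric acid; 33P incorporation read by scintillation counting. Other kinases by similar protocols.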"}, "[2]": {"molecular_target": "panel of human kinases (kinase named in endpoint) (Homo sapiens, UniProt P53671)", "conditions": "10 µM; read-out: Activity (%), LIMK2(h)", "outline": "as §1"}, "[3]": {"molecular_target": "panel of human kinases (kinase named in endpoint) (Homo sapiens, UniProt Q06187)", "sequence (Q06187 whole entry)": "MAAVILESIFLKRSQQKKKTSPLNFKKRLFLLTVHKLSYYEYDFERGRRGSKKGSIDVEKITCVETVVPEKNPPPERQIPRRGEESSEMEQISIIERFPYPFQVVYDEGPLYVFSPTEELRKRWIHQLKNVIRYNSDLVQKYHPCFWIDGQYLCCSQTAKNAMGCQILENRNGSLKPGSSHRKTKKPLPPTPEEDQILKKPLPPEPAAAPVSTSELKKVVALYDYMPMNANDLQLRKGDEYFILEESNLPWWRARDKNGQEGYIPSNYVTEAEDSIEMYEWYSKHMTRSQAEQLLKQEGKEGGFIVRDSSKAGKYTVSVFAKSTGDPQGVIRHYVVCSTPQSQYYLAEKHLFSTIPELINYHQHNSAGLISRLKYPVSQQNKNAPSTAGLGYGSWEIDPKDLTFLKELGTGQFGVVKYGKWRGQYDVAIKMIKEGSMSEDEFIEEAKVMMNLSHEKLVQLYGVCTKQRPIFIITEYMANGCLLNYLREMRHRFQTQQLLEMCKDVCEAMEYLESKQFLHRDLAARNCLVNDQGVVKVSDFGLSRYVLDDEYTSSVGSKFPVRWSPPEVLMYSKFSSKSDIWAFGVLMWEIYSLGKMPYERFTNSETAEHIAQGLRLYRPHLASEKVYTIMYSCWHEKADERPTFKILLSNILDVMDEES", "conditions": "10 µM; read-out: Activity (%), BTK(h)", "outline": "as §1"}, "[4]": {"molecular_target": "panel of human kinases (kinase named in endpoint) (Homo sapiens, UniProt Q8NE63)", "conditions": "10 µM; read-out: Activity (%), HIPK4(h)", "outline": "as §1"}, "[5]": {"molecular_target": "panel of human kinases (kinase named in endpoint) (Homo sapiens, UniProt P30530)", "conditions": "10 µM; read-out: Activity (%), Axl(h)", "outline": "as §1"}, "[6]": {"molecular_target": "panel of human kinases (kinase named in endpoint) (Homo sapiens, UniProt P54764)", "sequence (P54764 20-986)": "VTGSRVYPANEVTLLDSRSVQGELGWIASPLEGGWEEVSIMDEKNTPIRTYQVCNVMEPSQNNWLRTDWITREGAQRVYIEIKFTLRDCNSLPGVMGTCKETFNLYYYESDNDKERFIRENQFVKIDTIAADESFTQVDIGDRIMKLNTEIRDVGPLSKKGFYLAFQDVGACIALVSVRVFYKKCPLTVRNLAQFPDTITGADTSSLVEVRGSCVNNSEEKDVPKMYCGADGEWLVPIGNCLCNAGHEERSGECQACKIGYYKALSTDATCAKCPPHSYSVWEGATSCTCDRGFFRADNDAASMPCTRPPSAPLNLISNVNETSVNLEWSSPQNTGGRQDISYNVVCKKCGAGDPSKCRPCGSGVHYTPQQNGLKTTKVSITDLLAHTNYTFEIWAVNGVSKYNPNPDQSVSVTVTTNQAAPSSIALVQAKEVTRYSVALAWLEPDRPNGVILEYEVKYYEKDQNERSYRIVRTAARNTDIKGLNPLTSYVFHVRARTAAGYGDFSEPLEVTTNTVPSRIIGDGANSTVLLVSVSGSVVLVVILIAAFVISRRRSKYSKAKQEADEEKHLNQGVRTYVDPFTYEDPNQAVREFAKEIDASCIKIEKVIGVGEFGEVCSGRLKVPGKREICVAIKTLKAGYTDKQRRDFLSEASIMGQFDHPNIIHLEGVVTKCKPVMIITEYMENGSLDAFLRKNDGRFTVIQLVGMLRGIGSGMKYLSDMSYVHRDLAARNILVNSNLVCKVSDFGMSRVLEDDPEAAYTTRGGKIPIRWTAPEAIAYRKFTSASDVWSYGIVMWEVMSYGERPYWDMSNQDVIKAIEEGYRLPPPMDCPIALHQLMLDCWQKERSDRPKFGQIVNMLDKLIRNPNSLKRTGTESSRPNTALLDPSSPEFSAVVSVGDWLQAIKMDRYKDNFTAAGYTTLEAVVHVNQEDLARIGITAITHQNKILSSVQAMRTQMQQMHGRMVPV", "conditions": "10 µM; read-out: Activity (%), EphA4(h)", "outline": "as §1"}, "[7]": {"molecular_target": "panel of human kinases (kinase named in endpoint) (Homo sapiens, UniProt P49760)", "sequence (P49760 whole entry)": "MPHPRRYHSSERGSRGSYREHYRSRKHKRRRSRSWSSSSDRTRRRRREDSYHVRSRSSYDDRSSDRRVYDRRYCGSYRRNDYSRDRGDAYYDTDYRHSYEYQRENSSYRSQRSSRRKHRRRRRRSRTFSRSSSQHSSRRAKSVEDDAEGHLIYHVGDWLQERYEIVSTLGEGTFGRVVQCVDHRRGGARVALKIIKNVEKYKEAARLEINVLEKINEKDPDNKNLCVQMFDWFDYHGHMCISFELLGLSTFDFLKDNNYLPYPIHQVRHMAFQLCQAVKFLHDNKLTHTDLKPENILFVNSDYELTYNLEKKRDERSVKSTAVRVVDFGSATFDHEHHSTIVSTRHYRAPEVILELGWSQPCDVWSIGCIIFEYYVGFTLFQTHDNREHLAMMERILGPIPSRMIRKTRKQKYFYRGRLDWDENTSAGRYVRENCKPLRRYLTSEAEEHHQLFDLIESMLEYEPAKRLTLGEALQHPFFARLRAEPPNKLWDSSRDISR", "conditions": "10 µM; read-out: Activity (%), CLK2(h)", "outline": "as §1"}, "[8]": {"molecular_target": "panel of human kinases (kinase named in endpoint) (Homo sapiens, UniProt P22607)", "sequence (P22607 23-806)": "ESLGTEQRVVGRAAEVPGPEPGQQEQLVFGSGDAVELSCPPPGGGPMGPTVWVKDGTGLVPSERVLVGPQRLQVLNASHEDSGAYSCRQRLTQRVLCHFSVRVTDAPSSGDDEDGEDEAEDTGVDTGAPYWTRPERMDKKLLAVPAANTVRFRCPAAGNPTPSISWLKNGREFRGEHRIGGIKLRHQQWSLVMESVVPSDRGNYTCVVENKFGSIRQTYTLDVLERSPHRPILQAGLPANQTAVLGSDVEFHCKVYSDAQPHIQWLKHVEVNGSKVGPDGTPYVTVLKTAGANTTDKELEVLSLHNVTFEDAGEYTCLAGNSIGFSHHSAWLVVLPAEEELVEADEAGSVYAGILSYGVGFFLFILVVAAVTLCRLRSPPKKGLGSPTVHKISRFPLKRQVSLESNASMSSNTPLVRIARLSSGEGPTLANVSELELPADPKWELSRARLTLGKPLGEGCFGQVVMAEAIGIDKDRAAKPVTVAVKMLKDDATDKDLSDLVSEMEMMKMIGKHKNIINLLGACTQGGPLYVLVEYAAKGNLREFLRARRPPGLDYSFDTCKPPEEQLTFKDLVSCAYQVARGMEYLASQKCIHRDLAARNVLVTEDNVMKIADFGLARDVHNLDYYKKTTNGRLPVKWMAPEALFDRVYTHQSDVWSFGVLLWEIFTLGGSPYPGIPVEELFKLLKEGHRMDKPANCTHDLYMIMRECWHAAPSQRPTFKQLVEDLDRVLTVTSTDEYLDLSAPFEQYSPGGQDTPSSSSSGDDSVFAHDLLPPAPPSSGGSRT", "conditions": "10 µM; read-out: Activity (%), FGFR3(h)", "outline": "as §1"}, "[9]": {"molecular_target": "panel of human kinases (kinase named in endpoint) (Homo sapiens, UniProt O96017)", "conditions": "10 µM; read-out: Activity (%), CHK2(h)", "outline": "as §1"}, "[10]": {"molecular_target": "panel of human kinases (kinase named in endpoint) (Homo sapiens, UniProt P08581, D1228H)", "conditions": "10 µM; read-out: Activity (%), Met(D1246H)(h)", "outline": "as §1"}, "[11]": {"molecular_target": "panel of human kinases (kinase named in endpoint) (Homo sapiens, UniProt P51956)", "conditions": "10 µM; read-out: Activity (%), NEK3(h)", "outline": "as §1"}, "[12]": {"molecular_target": "panel of human kinases (kinase named in endpoint) (Homo sapiens, UniProt Q8TDX7)", "sequence (Q8TDX7 whole entry)": "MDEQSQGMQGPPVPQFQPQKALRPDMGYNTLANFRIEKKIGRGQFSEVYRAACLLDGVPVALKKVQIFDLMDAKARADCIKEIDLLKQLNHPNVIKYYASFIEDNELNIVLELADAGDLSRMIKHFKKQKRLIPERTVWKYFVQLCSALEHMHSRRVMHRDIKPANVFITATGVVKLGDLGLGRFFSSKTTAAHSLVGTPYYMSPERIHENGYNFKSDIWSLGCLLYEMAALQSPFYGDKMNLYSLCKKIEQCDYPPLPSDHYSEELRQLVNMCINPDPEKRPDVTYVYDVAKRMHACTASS", "conditions": "10 µM; read-out: Activity (%), NEK7(h)", "outline": "as §1"}, "[13]": {"molecular_target": "panel of human kinases (kinase named in endpoint) (Homo sapiens, UniProt Q16644)", "conditions": "10 µM; read-out: Activity (%), MAPKAP-K3(h)", "outline": "as §1"}, "[14]": {"molecular_target": "panel of human kinases (kinase named in endpoint) (Homo sapiens, UniProt O96013)", "conditions": "10 µM; read-out: Activity (%), PAK4(h)", "outline": "as §1"}, "[15]": {"molecular_target": "panel of human kinases (kinase named in endpoint) (Homo sapiens, UniProt Q12851)", "conditions": "10 µM; read-out: Activity (%), GCK(h)", "outline": "as §1"}, "[16]": {"molecular_target": "panel of human kinases (kinase named in endpoint) (Homo sapiens, UniProt P0C1S8)", "conditions": "10 µM; read-out: Activity (%), Wee1B(h)", "outline": "as §1"}, "[17]": {"molecular_target": "panel of human kinases (kinase named in endpoint) (Homo sapiens, UniProt Q9UKE5)", "sequence (Q9UKE5 whole entry)": "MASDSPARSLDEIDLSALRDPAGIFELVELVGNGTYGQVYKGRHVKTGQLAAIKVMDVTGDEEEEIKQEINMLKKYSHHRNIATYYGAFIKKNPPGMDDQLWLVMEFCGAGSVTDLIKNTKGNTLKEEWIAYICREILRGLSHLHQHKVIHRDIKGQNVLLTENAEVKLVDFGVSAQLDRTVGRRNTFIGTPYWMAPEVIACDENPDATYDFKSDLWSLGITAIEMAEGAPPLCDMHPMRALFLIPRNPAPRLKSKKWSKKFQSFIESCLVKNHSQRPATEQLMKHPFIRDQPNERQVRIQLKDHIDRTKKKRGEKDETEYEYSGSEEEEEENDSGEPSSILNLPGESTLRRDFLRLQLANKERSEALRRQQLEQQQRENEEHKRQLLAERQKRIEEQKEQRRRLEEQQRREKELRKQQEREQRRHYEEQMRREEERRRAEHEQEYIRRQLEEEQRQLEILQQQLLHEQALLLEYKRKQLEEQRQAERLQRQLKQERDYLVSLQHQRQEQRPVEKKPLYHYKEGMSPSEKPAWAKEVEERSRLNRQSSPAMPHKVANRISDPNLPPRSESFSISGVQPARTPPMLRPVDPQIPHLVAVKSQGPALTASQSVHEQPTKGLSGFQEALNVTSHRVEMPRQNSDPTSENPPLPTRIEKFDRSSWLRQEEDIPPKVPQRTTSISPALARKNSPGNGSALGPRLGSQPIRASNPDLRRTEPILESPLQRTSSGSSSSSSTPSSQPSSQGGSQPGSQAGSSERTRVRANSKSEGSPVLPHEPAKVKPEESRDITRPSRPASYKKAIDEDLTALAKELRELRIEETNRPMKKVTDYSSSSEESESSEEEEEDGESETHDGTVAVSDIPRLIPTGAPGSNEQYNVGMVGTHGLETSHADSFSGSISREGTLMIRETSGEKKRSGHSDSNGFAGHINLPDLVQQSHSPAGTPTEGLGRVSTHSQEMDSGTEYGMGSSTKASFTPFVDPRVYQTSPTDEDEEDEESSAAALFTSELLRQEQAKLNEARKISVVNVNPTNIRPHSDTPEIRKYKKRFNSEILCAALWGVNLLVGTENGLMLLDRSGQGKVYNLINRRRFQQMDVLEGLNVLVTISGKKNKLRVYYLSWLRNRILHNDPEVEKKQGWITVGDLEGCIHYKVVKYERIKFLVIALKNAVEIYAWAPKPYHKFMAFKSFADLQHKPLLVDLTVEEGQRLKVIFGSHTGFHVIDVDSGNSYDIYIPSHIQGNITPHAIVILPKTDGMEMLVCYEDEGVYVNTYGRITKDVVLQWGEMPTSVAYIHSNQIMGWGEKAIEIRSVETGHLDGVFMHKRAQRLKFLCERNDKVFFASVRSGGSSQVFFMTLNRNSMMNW", "conditions": "10 µM; read-out: Activity (%), TNIK(h)", "outline": "as §1"}, "[18]": {"molecular_target": "panel of human kinases (kinase named in endpoint) (Homo sapiens, UniProt P78362)", "conditions": "10 µM; read-out: Activity (%), SRPK2(h)", "outline": "as §1"}, "[19]": {"molecular_target": "panel of human kinases (kinase named in endpoint) (Homo sapiens, UniProt P25098)", "conditions": "10 µM; read-out: Activity (%), GRK2(h)", "outline": "as §1"}, "[20]": {"molecular_target": "panel of human kinases (kinase named in endpoint) (Homo sapiens, UniProt Q9NQU5)", "conditions": "10 µM; read-out: Activity (%), PAK6(h)", "outline": "as §1"}, "[21]": {"molecular_target": "panel of human kinases (kinase named in endpoint) (Homo sapiens, UniProt P49137)", "conditions": "10 µM; read-out: Activity (%), MAPKAP-K2(h)", "outline": "as §1"}, "[22]": {"molecular_target": "panel of human kinases (kinase named in endpoint) (Homo sapiens, UniProt P41240)", "sequence (P41240 whole entry)": "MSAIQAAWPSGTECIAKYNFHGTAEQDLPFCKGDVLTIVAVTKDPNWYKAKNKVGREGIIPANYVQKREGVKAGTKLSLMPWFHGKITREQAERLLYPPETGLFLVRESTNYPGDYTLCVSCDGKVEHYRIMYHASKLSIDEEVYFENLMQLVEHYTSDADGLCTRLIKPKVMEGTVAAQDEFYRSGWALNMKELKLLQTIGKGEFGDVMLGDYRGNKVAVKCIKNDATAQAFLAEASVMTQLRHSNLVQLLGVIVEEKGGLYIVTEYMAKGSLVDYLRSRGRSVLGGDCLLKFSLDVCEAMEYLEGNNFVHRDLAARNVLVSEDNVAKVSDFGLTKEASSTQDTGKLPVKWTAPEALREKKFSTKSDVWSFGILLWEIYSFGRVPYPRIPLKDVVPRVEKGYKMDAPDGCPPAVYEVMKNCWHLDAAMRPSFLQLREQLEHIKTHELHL", "conditions": "10 µM; read-out: Activity (%), CSK(h)", "outline": "as §1"}, "[23]": {"molecular_target": "panel of human kinases (kinase named in endpoint) (Homo sapiens, UniProt Q14289)", "conditions": "10 µM; read-out: Activity (%), Pyk2(h)", "outline": "as §1"}, "[24]": {"molecular_target": "panel of human kinases (kinase named in endpoint) (Homo sapiens, UniProt Q9UPZ9)", "conditions": "10 µM; read-out: Activity (%), ICK(h)", "outline": "as §1"}, "[25]": {"molecular_target": "panel of human kinases (kinase named in endpoint) (Homo sapiens, UniProt Q9HBY8)", "conditions": "10 µM; read-out: Activity (%), SGK2(h)", "outline": "as §1"}, "[26]": {"molecular_target": "panel of human kinases (kinase named in endpoint) (Homo sapiens, UniProt Q13627)", "conditions": "10 µM; read-out: Activity (%), DYRK1A(h)", "outline": "as §1"}}}
{"smiles": "CC(C)C(=O)Nc1nc2cc(-c3ccc4c(c3)c(C(=O)NC(C)c3ccccc3)cn4C)ccn2n1", "note": "(centres unmarked) [RI-962]", "values": [{"measurement": "activity at 10 µM", "setting": "[1]", "value": 104, "unit": "%"}, {"measurement": "activity at 10 µM", "setting": "[2]", "value": 101, "unit": "%"}, {"measurement": "activity at 10 µM", "setting": "[3]", "value": 92, "unit": "%"}, {"measurement": "activity at 10 µM", "setting": "[4]", "value": 71, "unit": "%"}, {"measurement": "activity at 10 µM", "setting": "[5]", "value": 110, "unit": "%"}, {"measurement": "activity at 10 µM", "setting": "[6]", "value": 77, "unit": "%"}, {"measurement": "activity at 10 µM", "setting": "[7]", "value": 94, "unit": "%"}, {"measurement": "activity at 10 µM", "setting": "[8]", "value": 72, "unit": "%"}, {"measurement": "activity at 10 µM", "setting": "[9]", "value": 98, "unit": "%"}, {"measurement": "activity at 10 µM", "setting": "[10]", "value": 134, "unit": "%"}, {"measurement": "activity at 10 µM", "setting": "[11]", "value": 103, "unit": "%"}, {"measurement": "activity at 10 µM", "setting": "[12]", "value": 85, "unit": "%"}, {"measurement": "activity at 10 µM", "setting": "[13]", "value": 98, "unit": "%"}, {"measurement": "activity at 10 µM", "setting": "[14]", "value": 92, "unit": "%"}, {"measurement": "activity at 10 µM", "setting": "[15]", "value": 83, "unit": "%"}, {"measurement": "activity at 10 µM", "setting": "[16]", "value": 95, "unit": "%"}, {"measurement": "activity at 10 µM", "setting": "[17]", "value": 65, "unit": "%"}, {"measurement": "activity at 10 µM", "setting": "[18]", "value": 100, "unit": "%"}, {"measurement": "activity at 10 µM", "setting": "[19]", "value": 86, "unit": "%"}, {"measurement": "activity at 10 µM", "setting": "[20]", "value": 87, "unit": "%"}, {"measurement": "activity at 10 µM", "setting": "[21]", "value": 97, "unit": "%"}, {"measurement": "activity at 10 µM", "setting": "[22]", "value": 76, "unit": "%"}, {"measurement": "activity at 10 µM", "setting": "[23]", "value": 106, "unit": "%"}, {"measurement": "activity at 10 µM", "setting": "[24]", "value": 102, "unit": "%"}, {"measurement": "activity at 10 µM", "setting": "[25]", "value": 120, "unit": "%"}, {"measurement": "activity at 10 µM", "setting": "[26]", "value": 96, "unit": "%"}]}
